In US20200361895A1, “NOVEL SULFONAMIDE CARBOXAMIDE COMPOUNDS” (Inflazome Limited, priority 2017, published 2020) one finds IC50 data, which are given here for 20 compounds.

In assay [1] the target is T1, NLRP3 (Homo sapiens, UniProt Q96P20). The assay is described as follows: Human whole blood IL1β release assay (LPS + nigericin, AlphaLisa IL-1β; HWB IC50). The following applies: IL-1β release. The format is cell-based. More on the design: Human whole blood in Li-heparin tubes was obtained from healthy donors from a volunteer donor panel; from tissue; host or cells: human whole blood from healthy donors. On the procedure:
For systemic delivery, the ability to inhibit NLRP3 when the compounds are present within the bloodstream is of great importance. For this reason, the NLRP3 inhibitory activity of a number of compounds in human whole blood was investigated in accordance with the following protocol.
Human whole blood in Li-heparin tubes was obtained from healthy donors from a volunteer donor panel. • 1. Plate out 80 μl of whole blood containing 1 μg/ml of LPS in 96-well, clear bottom cell culture plate (Corning #3585) • 2. Add 10 μl compound (8 points half-log dilution with 10 μM top dose) or vehicle (DMSO 0.1% FAC) to the appropriate wells • 3. Incubate for 3 hrs at 37° C., 5% CO2 • 4. Add 10 μl nigericin (Sigma #N7143) (10 μM FAC) to all wells • 5. Incubate for 1 hr at 37° C., 5% CO2 • 6. At the end of the incubation period, spin plates at 300×g for 5 mins to pellet cells and remove 20 μl of supernatant and add to 96-well v-bottom plates for IL-1β analysis (note: these plates containing the supernatants can be stored at −80° C. to be analysed at a later date) • 7. IL-1β was measured according to the manufacturer protocol (Perkin Elmer-AlphaLisa IL-1 Kit AL220F-5000) • 8. IC50 data is fitted to a non-linear regression equation (log inhibitor vs response-variable slope 4-parameters)
(In Alpha technology, singlet oxygen from a donor bead excites a nearby acceptor bead.)

The target of assay [2] is T1, NLRP3. The assay is described as follows: THP-1 cells pyroptosis assay (LPS + nigericin, resazurin readout; THP IC50). The format is cell-based. More on the design: Seed THP-1 cells (25,000 cells/well) containing 1.0 μg/ml LPS in 40 μl of RPMI medium; host or cells: THP-1 cells. A digest of the protocol: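 IC50 from 4-parameter fit of resazurin fluorescence (100 μM, 1-2 hrs), reflecting surviving cells after pyroptosis. LPS-primed (1 μg/ml) THP-1 cells in FBS-free RPMI got compound for 3 hrs at 37° C (top 10 μM, half-log, 8 points), then nigericin 5 μM for 1 hr.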

Structures are written as SMILES.

T1 sequence (Q96P20 whole entry): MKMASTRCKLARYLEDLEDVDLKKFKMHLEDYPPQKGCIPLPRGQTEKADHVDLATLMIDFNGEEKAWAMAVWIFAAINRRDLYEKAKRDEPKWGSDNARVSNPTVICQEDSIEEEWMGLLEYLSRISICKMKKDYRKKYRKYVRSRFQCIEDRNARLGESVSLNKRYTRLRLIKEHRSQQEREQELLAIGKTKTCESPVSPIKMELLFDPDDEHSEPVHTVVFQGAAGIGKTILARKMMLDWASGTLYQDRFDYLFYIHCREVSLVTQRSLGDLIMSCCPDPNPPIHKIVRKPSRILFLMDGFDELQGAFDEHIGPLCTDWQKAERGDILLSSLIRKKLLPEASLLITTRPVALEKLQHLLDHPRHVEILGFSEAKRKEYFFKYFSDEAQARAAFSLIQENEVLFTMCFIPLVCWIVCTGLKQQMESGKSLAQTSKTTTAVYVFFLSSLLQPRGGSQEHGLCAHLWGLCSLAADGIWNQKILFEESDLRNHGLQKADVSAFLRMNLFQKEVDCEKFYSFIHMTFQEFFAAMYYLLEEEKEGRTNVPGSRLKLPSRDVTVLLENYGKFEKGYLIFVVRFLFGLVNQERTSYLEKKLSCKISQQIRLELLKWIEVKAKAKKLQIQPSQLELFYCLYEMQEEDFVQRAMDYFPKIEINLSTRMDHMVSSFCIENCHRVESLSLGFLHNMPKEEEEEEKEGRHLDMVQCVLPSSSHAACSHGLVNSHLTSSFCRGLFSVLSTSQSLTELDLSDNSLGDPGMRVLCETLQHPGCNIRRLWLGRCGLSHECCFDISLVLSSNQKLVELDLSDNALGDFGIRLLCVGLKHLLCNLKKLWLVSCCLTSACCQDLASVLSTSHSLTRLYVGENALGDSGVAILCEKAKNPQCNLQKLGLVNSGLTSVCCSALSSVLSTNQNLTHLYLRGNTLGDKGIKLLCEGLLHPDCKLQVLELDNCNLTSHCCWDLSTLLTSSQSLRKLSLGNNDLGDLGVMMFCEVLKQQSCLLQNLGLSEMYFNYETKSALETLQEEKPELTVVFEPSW

Usually IC50 stands for the concentration at which inhibition is half-maximal. With `CN(C)c1cncc(S(=O)(=O)NC(=O)Nc2c(-c3ccncc3)cc(F)c3c2CCC3)n1` [Example 105, 6-(Dimethylamino)-N-((7-fluoro-5-(pyridin-4-yl)-2,3-dihydro-1H-inden-4-yl)carbamoyl)pyrazine-2-sulfonamide], the IC50 at NLRP3 [1] is not above 1 µM; at NLRP3 [2], not above 0.5 µM.
`CC(C)c1cc(F)cc(-c2ccnc(C#N)c2)c1NC(=O)NS(=O)(=O)c1cnc(N(C)C)cn1` [Example 106, N-((2-(2-Cyanopyridin-4-yl)-4-fluoro-6-isopropylphenyl)carbamoyl)-5-(dimethylamino)pyrazine-2-sulfonamide]: the IC50 at NLRP3 [1] was not above 5 µM; at NLRP3 [2], not above 0.5 µM.
Regarding `COc1cc(-c2ccc3c(c2NC(=O)NS(=O)(=O)c2cnc(N(C)C)cn2)CCC3)ccn1` [Example 108, 5-(Dimethylamino)-N-((5-(2-methoxypyridin-4-yl)-2,3-dihydro-1H-inden-4-yl)carbamoyl)pyrazine-2-sulfonamide], the IC50 was not above 5 µM on NLRP3 [1] and not above 0.5 µM on NLRP3 [2].
With `CN(C)c1cnc(S(=O)(=O)NC(=O)Nc2c(-c3ccncc3)cc(F)c3c2CCC3)cn1` [Example 109, 5-(Dimethylamino)-N-((7-fluoro-5-(pyridin-4-yl)-2,3-dihydro-1H-inden-4-yl)carbamoyl)pyrazine-2-sulfonamide], the figures for the IC50 on NLRP3 [1] and at NLRP3 [2] were not above 5 µM and not above 0.5 µM, respectively.
For `Cc1cc(C)nc(S(=O)(=O)NC(=O)Nc2c(-c3ccnc(C#N)c3)cc(F)cc2C(C)C)n1` [Example 114, N-((2-(2-Cyanopyridin-4-yl)-4-fluoro-6-isopropylphenyl)carbamoyl)-4,6-dimethylpyrimidine-2-sulfonamide], in that order: not above 5 µM and not above 0.5 µM.
Take `COc1cc(-c2ccc3c(c2NC(=O)NS(=O)(=O)c2nc(C)cc(C)n2)CCC3)ccn1` [Example 116, N-((5-(2-Methoxypyridin-4-yl)-2,3-dihydro-1H-inden-4-yl)carbamoyl)-4,6-dimethylpyrimidine-2-sulfonamide]: the IC50 at NLRP3 [1] and at NLRP3 [2] was not above 0.5 µM in each case.
For the compound `Cc1cc(C)nc(S(=O)(=O)NC(=O)Nc2c(-c3ccncc3)cc(F)c3c2CCC3)n1` [Example 117, N-((7-Fluoro-5-(pyridin-4-yl)-2,3-dihydro-1H-inden-4-yl)carbamoyl)-4,6-dimethylpyrimidine-2-sulfonamide], the IC50 was not above 1 µM at NLRP3 [1] and not above 0.5 µM on NLRP3 [2].
With `CC(C)c1cc(F)cc(-c2ccnc(C#N)c2)c1NC(=O)NS(=O)(=O)c1cc(N(C)C)cnn1` [Example 118, N-((2-(2-Cyanopyridin-4-yl)-4-fluoro-6-isopropylphenyl)carbamoyl)-5-(dimethylamino)pyridazine-3-sulfonamide], the IC50 is not above 1 µM at NLRP3 [1] and not above 0.5 µM on NLRP3 [2].
For the compound `COc1cc(-c2cc(F)cc(C(C)C)c2NC(=O)NS(=O)(=O)c2cc(N(C)C)cnn2)ccn1` [Example 119, 5-(Dimethylamino)-N-((4-fluoro-2-isopropyl-6-(2-methoxypyridin-4-yl)phenyl)carbamoyl) pyridazine-3-sulfonamide], the IC50 on NLRP3 [1] is not above 5 µM; on NLRP3 [2], not above 0.5 µM.
Take `COc1cc(-c2ccc3c(c2NC(=O)NS(=O)(=O)c2cc(N(C)C)cnn2)CCC3)ccn1` [Example 120, 5-(Dimethylamino)-N-((5-(2-methoxypyridin-4-yl)-2,3-dihydro-1H-inden-4-yl)carbamoyl) pyridazine-3-sulfonamide]: the IC50 on NLRP3 [1] was not above 5 µM; at NLRP3 [2], not above 0.5 µM.
As to `CN(C)c1cnnc(S(=O)(=O)NC(=O)Nc2c(-c3ccncc3)cc(F)c3c2CCC3)c1` [Example 121, 5-(Dimethylamino)-N-((7-fluoro-5-(pyridin-4-yl)-2,3-dihydro-1H-inden-4-yl)carbamoyl) pyridazine-3-sulfonamide], the IC50 at NLRP3 [1] was not above 1 µM; on NLRP3 [2], not above 0.5 µM.
With `COc1cc(-c2ccc3c(c2NC(=O)NS(=O)(=O)N(C)CC2CCCN2C)CCC3)ccn1` (stereo not shown) [Example 123, 3-(N-Methyl-N-((1-methylpyrrolidin-2-yl)methyl)sulfamoyl)-1-(5-(2-methoxypyridin-4-yl)-2,3-dihydro-1H-inden-4-yl)urea], the half-inhibitory concentration (IC50) on NLRP3 [1] and on NLRP3 [2] was not above 0.5 µM throughout.
Consider `COc1cc(-c2cc(F)c3c(c2NC(=O)NS(=O)(=O)N(C)CC2CCCN2C)CCC3)ccn1` (stereo not shown) [Example 125, 3-(N-Methyl-N-((1-methylpyrrolidin-2-yl)methyl)sulfamoyl)-1-(7-fluoro-5-(2-methoxypyridin-4-yl)-2,3-dihydro-1H-inden-4-yl)urea], for which the IC50 on NLRP3 [1] and on NLRP3 [2] was not above 0.5 µM in each case.
On to `COc1cc(-c2cc(F)c3c(c2NC(=O)NS(=O)(=O)N2C[C@H]4C[C@@H]2CN4C)CCC3)ccn1` [Example 126, (1R,4R)—N-((7-Fluoro-5-(2-methoxypyridin-4-yl)-2,3-dihydro-1H-inden-4-yl)carbamoyl)-5-methyl-2,5-diazabicyclo[2.2.1]heptane-2-sulfonamide], for which the IC50 on NLRP3 [1] and at NLRP3 [2] was not above 0.5 µM throughout.
Turning to `O=C(Nc1c(-c2ccncc2)cc(F)c2c1CCC2)NS(=O)(=O)CCc1ccccc1` [Example 138, N-((7-Fluoro-5-(pyridin-4-yl)-2,3-dihydro-1H-inden-4-yl)carbamoyl)-2-phenylethanesulfonamide], the IC50 on NLRP3 [1] was not above 10 µM; at NLRP3 [2], not above 1 µM.
Turning to `COc1cc(-c2ccc3c(c2NC(=O)NS(=O)(=O)c2cnn(C4CC4)c2)CCC3)ccn1` [Example 145, 1-Cyclopropyl-N-((5-(2-methoxypyridin-4-yl)-2,3-dihydro-1H-inden-4-yl)carbamoyl)-1H-pyrazole-4-sulfonamide], the IC50 is not above 1 µM at NLRP3 [1] and not above 0.5 µM on NLRP3 [2].
On to `CCN(CC)CCCS(=O)(=O)NC(=O)Nc1c(-c2ccncc2)cc(F)c2c1CCC2` [Example 149, 3-(Diethylamino)-N-((7-fluoro-5-(pyridin-4-yl)-2,3-dihydro-1H-inden-4-yl)carbamoyl)propane-1-sulfonamide], for which the IC50 at NLRP3 [1] and at NLRP3 [2] was not above 0.5 µM throughout.
Regarding `CCN(CCCS(=O)(=O)NC(=O)Nc1c(-c2ccncc2)cc(F)c2c1CCC2)Cc1ccccc1` [Example 153, 3-(Benzyl(ethyl)amino)-N-((7-fluoro-5-(pyridin-4-yl)-2,3-dihydro-1H-inden-4-yl)carbamoyl)propane-1-sulfonamide], the IC50 on NLRP3 [1] was not above 5 µM; at NLRP3 [2], not above 0.5 µM.
For `COc1cc(-c2cc(F)cc(C(C)C)c2NC(=O)NS(=O)(=O)CC2CCN(C)C2)ccn1` (stereo not shown) [Example 163, N-((4-Fluoro-2-isopropyl-6-(2-methoxypyridin-4-yl)phenyl)carbamoyl)-1-(1-methylpyrrolidin-3-yl) methanesulfonamide], in that order: not above 0.5 µM and not above 0.5 µM.
For `COc1cc(-c2ccc3c(c2NC(=O)NS(=O)(=O)CC2CCN(C)C2)CCC3)ccn1` (stereo not shown) [Example 164, N-((5-(2-Methoxypyridin-4-yl)-2,3-dihydro-1H-inden-4-yl)carbamoyl)-1-(1-methylpyrrolidin-3-yl) methanesulfonamide], the IC50 on NLRP3 [1] and at NLRP3 [2] was not above 0.5 µM in each case.
